Assay results as given in patent US8071786B2, “Indole compounds useful as serotonin selective agents” (Galenea Corp., priority 2005, dated 2011).
Marks after values point to notes of the source that are not given here.

How the values were obtained:
human 5-HT2C-INI = target: T1, human 5-HT2C-INI (Homo sapiens, UniProt P28335); experiment: Phosphoinositide hydrolysis functional assay; assay type: cell-based; details: for EC50 / Functional Assay (EC50) 5-HT2C: activation of phosphoinositide hydrolysis, stably expressed receptor; for Emax: value in brackets, read-out: percent Vmax relative to serotonin at 100%, 5-HT2C (converted)
T1 construct: expressed in transfected cells
T1 sequence (P28335 33-458): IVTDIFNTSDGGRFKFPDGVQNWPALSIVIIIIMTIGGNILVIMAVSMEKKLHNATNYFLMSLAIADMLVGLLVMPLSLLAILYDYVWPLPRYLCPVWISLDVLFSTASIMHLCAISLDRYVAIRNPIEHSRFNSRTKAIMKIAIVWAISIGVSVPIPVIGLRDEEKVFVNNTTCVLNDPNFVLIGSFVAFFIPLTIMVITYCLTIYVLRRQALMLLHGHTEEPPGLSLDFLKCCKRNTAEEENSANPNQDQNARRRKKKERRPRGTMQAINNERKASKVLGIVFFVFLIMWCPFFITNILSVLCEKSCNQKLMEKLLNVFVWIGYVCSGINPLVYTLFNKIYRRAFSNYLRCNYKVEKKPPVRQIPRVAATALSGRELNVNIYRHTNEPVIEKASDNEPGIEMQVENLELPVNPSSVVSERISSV
Description: (§1) Phosphoinositide hydrolysis assays were performed with stably (5-HT2A, 5-HT2C) or transiently (5-HT2B) expressed receptors plated in 24-well culture plates. Transfected cells were loaded with […] overnight in inositol-free DMEM without serum. The next day, phosphate accumulation assays were performed in a modified Krebs-bicarbonate buffer. Kact (nmol/L) and percent Vmax (relative to 5-HT) values were calculated (Roth, B. L., Shoham, M., Choudhary, M., Khan, N. “Identification of Conserved Aromatic Residues Essential for Agonist Binding and Second Messenger Production at 5-Hydroxytryptamine 2A Receptors” Mol. Pharmacol. 1997, 52, 259; Roth, B. L., Choudhary, M., Khan, N., Uluer, A. “High-affinity Agonist Binding is not Sufficient for Agonist Efficacy at 5-Hydroxytryptamine 2A Receptors: Evidence in Favor of a Modified Ternary Complex Model” J. Pharmacol. Exp. Ther. 1997, 280, 576).
(§2) Functional Assay (EC50) in nM. Data represent mean EC50 values for activation of phospho-inositide hydrolysis in cells expressing human 5-HT2A, 5-HT2B or 5-HT2C-INI receptors, relative to serotonin at 100%. When the standard deviation is given, N≧3.

5-HT2B = 5-HT2B (Homo sapiens, UniProt P41595); experiment: Phosphoinositide hydrolysis functional assay; assay type: cell-based; parameters: expressed in transfected cells; details: activation of phosphoinositide hydrolysis, transiently expressed receptor
Sequence of 5-HT2B (P41595 whole entry): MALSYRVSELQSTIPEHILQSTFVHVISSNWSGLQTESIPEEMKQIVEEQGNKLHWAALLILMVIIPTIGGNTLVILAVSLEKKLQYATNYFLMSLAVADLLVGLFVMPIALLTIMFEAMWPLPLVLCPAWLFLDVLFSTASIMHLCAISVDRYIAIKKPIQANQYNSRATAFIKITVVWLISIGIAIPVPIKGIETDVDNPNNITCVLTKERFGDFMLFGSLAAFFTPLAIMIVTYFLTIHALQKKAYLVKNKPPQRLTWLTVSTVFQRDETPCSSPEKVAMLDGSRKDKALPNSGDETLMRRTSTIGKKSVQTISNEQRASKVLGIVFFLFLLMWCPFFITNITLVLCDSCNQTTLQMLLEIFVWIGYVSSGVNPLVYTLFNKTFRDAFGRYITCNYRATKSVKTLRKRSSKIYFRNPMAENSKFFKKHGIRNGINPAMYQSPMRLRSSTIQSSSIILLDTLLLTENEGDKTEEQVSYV
Description: as §1, §2

5-HT2A = 5-HT2A (Homo sapiens, UniProt P28223); experiment: Phosphoinositide hydrolysis functional assay; assay type: cell-based; parameters: expressed in transfected cells; details: for EC50 / Functional Assay (EC50) 5-HT2A: activation of phosphoinositide hydrolysis, stably expressed receptor; for percent Vmax relative to serotonin at 100%, 5-HT2A: value in brackets
Sequence of 5-HT2A (P28223 whole entry): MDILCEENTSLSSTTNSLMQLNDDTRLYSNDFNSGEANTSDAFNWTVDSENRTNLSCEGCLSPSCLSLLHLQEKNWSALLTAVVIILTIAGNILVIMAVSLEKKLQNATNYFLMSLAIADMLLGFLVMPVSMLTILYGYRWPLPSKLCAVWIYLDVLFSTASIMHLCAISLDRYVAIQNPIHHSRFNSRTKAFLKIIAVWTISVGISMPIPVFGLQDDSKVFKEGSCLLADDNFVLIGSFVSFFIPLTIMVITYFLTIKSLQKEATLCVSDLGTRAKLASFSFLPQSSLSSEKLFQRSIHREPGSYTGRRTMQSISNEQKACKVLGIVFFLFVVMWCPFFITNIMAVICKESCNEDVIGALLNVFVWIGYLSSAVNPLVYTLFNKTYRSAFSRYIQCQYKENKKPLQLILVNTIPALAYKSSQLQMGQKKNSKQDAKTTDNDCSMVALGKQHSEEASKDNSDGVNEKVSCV
Description: as §1, §2

[1] = tested on: itch-associated scratching induced by serotonin; experiment: Animal model for OCD: serotonin-induced scratching; assay type: in vivo, male Swiss-Webster mice; details: for Number of Scratches as Percentage of Control: inducer Serotonin
Description: The 5-HT action is at least partly mediated by 5-HT2 receptors in the skin, as shown by blocking with specific antagonists (Yamaguchi, T., Nagasawa, T., Satoh, M., Kuraishi, Y. “Itch-associated Response Induced by Intradermal Serotonin Through 5-HT2 Receptors in Mice” Neurosci. Res. 1999, 35, 77). The effect of test compounds on itch-associated scratching in the mice may indicate their action on 5-HT receptors, and a study was carried out as an animal model for OCD. The subjects were male Swiss-Webster mice, 4-6 weeks old, weighing 25-45 g. Mice were housed 5 per cage, given free access to standard mouse food and water except during experiments, and maintained in a temperature-controlled room (70° F.). Serotonin and all test drugs were made up with ascorbic acid to protect against oxidation. Two mice, one a control, the other experimental, were tested each time. Each mouse was separately placed into a plexiglas box.
Mice were injected subcutaneously between the shoulder blades with either 0.1 ml of serotonin, 0.4 mg per ml in 0.15 M saline plus ascorbic acid, 1 mg/ml, or compound 48-80 (the copolymer product of N-methyl-p-methoxyphenethylamine with formaldehyde), 1.0 mg/ml in saline plus ascorbic acid. Test compounds were injected i.p. 5 minutes before the inducer. The cumulative number of scratches with a hind leg was recorded at 5 minute intervals for 30 minutes. One saline injected control and one test animal were tested together in each assay.

[2] = Appetite suppression in mice, acute assay (food consumption); assay type: in vivo; details: for Mean food consumption 60 min. after injection: g (±SEM) Compound / Mean food consumption 90 min. after injection: g (±SEM) Compound: mice deprived of food 18 hours
Description: Mice were deprived of food, but not water, for 18 hours. They were then injected i.p. with test compounds dissolved in 0.9% NaCl containing 1 mg per ml ascorbic acid for protection against oxidation. Each mouse was placed in an individual cage for 30 minutes and then presented with a small petri dish containing a gel made from gelatin, powdered milk and sucrose. The dish was weighed at zero time and at 15-minute intervals for the next hour in order to quantitate food consumption. Controls were injected with saline-ascorbic acid; ±fenfluramine was used as an active control. Control consumption generally ranged from 1.5 to 2.0 grams.

[3] = Appetite suppression in mice, chronic assay (body weight); assay type: in vivo
Description: Mice were injected i.p. at intervals of 2 or 3 days and weighed repeatedly (6 or 7 total injections). Controls were injected with saline. Weighing and injection were carried out between 11 AM and 1 PM.

[4] = 10 mg/kg i.p. 5 minutes before inducer Serotonin
[5] = 20 mg/kg i.p. at intervals of 2 or 3 days
[6] = dose cell empty (10 mg/kg printed on the Saline line above), i.p. at intervals of 2 or 3 days

CCCn1cc(CCN(C)C)c2c(O)cc(F)cc21 [Compound O-4285, 3-(2-Dimethylaminoethyl)-6-fluoro-1-propyl-1H-indol-4-ol]
EC50 (human 5-HT2C-INI): 131 nM
Emax (human 5-HT2C-INI): ~75%
Functional Assay (EC50) 5-HT2B (5-HT2B): Inactive
EC50 (5-HT2A): 166 nM
percent Vmax relative to serotonin at 100%, 5-HT2A (5-HT2A): 63%
melting point: 104 to 106 °C

CC(C)n1cc(CCN(C)C)c2c(O)cc(F)cc21 [Compound O-4310, 3-(2-Dimethylaminoethyl)-6-fluoro-1-isopropyl-1H-indol-4-ol]
EC50 (human 5-HT2C-INI): 592 nM
Emax (human 5-HT2C-INI): ~50%
Functional Assay (EC50) 5-HT2B (5-HT2B): Inactive
EC50 (5-HT2A): 5 nM
percent Vmax relative to serotonin at 100%, 5-HT2A (5-HT2A): 89%

CNCCC(Oc1ccc(C(F)(F)F)cc1)c1ccccc1 (centres unmarked) [Fluoxetine, reference compound]
Average Number of Scratches 30 min. after injection [1, 4]: 15
Number of Scratches as Percentage of Control ([1]; 10 mg/kg i.p.): 4.1%

CN(C)CCc1cn(C)c2cc(F)cc(O)c12 [Compound O-4244, 3-(2-Dimethylaminoethyl)-6-fluoro-1-methyl-1H-indol-4-ol]
EC50 (human 5-HT2C-INI): 0.66 nM
Emax (human 5-HT2C-INI): 75%
Functional Assay (EC50) 5-HT2B (5-HT2B): Inactive
EC50 (5-HT2A): 0.55 nM
percent Vmax relative to serotonin at 100%, 5-HT2A (5-HT2A): 61%
melting point: 132 to 134 °C

CCS(=O)(=O)n1cc(CCN(C)C)c2c(O)cc(F)cc21 [Compound O-4312, 3-(2-Dimethylaminoethyl)-6-fluoro-1-ethylsulfonyl-1H-indol-4-ol]
Functional Assay (EC50) 5-HT2C (human 5-HT2C-INI): inactive
Functional Assay (EC50) 5-HT2B (5-HT2B): Inactive
Functional Assay (EC50) 5-HT2A (5-HT2A): inactive

CC(C)n1cc(CCN(C)C)c2c(O)ccc(F)c21
melting point: 108 to 110 °C

CCn1cc(CCN(C)C)c2c(O)cc(F)cc21 [Compound O-4284, 3-(2-Dimethylaminoethyl)-6-fluoro-1-ethyl-1H-indol-4-ol]
EC50 (human 5-HT2C-INI): 0.54 nM
Emax (human 5-HT2C-INI): 73%
Functional Assay (EC50) 5-HT2B (5-HT2B): Inactive
EC50 (5-HT2A): 2.9 nM
percent Vmax relative to serotonin at 100%, 5-HT2A (5-HT2A): 73%

CCCn1cc(CCN(C)C)c2c(OP(=O)(O)O)ccc(F)c21 [Compound O-4309, 3-(2-Dimethylaminoethyl)-7-fluoro-1-propyl-1H-indol-4-phosphate]
% of Control (food consumption 60 min. after injection) ([2]; 10 mg/kg i.p.): 41%
% of Control (food consumption 90 min. after injection) ([2]; 10 mg/kg i.p.): 64%
Mean food consumption 60 min. after injection: g (±SEM) Compound ([2]; 10 mg/kg i.p.): 0.28 (.06)* g
Mean food consumption 90 min. after injection: g (±SEM) Compound ([2]; 10 mg/kg i.p.): 0.68 (0.1)* g
% of Control (food consumption 60 min. after injection) ([2]; 20 mg/kg i.p.): 9%
% of Control (food consumption 90 min. after injection) ([2]; 20 mg/kg i.p.): 18%
Mean food consumption 60 min. after injection: g (±SEM) Compound ([2]; 20 mg/kg i.p.): .07 (.02)* g
Mean food consumption 90 min. after injection: g (±SEM) Compound ([2]; 20 mg/kg i.p.): 0.22 (.05)* g
Day 7 % Δ from starting weight [3, 5]: −2.3* %
Day 7 Difference within same group [3, 5]: -1.20 g
Day 14 % Δ from starting weight [3, 5]: −6.03* %
Day 14 Difference within same group [3, 5]: -3.20 g
Average Number of Scratches 30 min. after injection ([1]; 2.5 mg/kg i.p. 5 minutes before inducer Serotonin): 181.4
Number of Scratches as Percentage of Control ([1]; 2.5 mg/kg i.p.): 97.4%
Average Number of Scratches 30 min. after injection ([1]; 5 mg/kg i.p. 5 minutes before inducer Serotonin): 89.6
Number of Scratches as Percentage of Control ([1]; 5 mg/kg i.p.): 17.8%
Average Number of Scratches 30 min. after injection [1, 4]: 8.8
Number of Scratches as Percentage of Control ([1]; 10 mg/kg i.p.): 1.6%

CN(C)CCc1cn(S(C)(=O)=O)c2cc(F)cc(O)c12
melting point: 184 to 186 °C

CCNC(C)Cc1cccc(C(F)(F)F)c1 (centres unmarked) [+/−Fenfluramine, Fenfluramine, reference compound]
% of Control (food consumption 60 min. after injection) ([2]; 3 mg/kg i.p.): 95%
% of Control (food consumption 90 min. after injection) ([2]; 3 mg/kg i.p.): 95%
Mean food consumption 60 min. after injection: g (±SEM) Compound ([2]; 3 mg/kg i.p.): 1.2 (.12) g
Mean food consumption 90 min. after injection: g (±SEM) Compound ([2]; 3 mg/kg i.p.): 1.60 (.14) g
% of Control (food consumption 60 min. after injection) ([2]; 5 mg/kg i.p.): 61%
% of Control (food consumption 90 min. after injection) ([2]; 5 mg/kg i.p.): 67%
Mean food consumption 60 min. after injection: g (±SEM) Compound ([2]; 5 mg/kg i.p.): 0.90 (.04)* g
Mean food consumption 90 min. after injection: g (±SEM) Compound ([2]; 5 mg/kg i.p.): 1.18 (.17)* g
% of Control (food consumption 60 min. after injection) ([2]; 10 mg/kg i.p.): 30%
% of Control (food consumption 90 min. after injection) ([2]; 10 mg/kg i.p.): 35%
Mean food consumption 60 min. after injection: g (±SEM) Compound ([2]; 10 mg/kg i.p.): 0.41 (.11)* g
Mean food consumption 90 min. after injection: g (±SEM) Compound ([2]; 10 mg/kg i.p.): 0.56 (.13)* g
Day 7 % Δ from starting weight [3, 6]: −9.54* %
Day 7 Difference within same group [3, 6]: -4.74 g
Day 14 % Δ from starting weight [3, 6]: −10.7* %
Day 14 Difference within same group [3, 6]: -5.32 g
Average Number of Scratches 30 min. after injection [1, 4]: 12.8*
Number of Scratches as Percentage of Control ([1]; 10 mg/kg i.p.): 6.5%

CN(C)CCc1cn(CC2CC2)c2cc(F)cc(O)c12 [Compound O-4287, 3-(2-Dimethylaminoethyl)-6-fluoro-1-cyclopropylmethyl-1H-indol-4-ol]
EC50 (human 5-HT2C-INI): 1160 nM
Emax (human 5-HT2C-INI): 41%
Functional Assay (EC50) 5-HT2B (5-HT2B): Inactive
EC50 (5-HT2A): 3740 nM
percent Vmax relative to serotonin at 100%, 5-HT2A (5-HT2A): 63%
melting point: 110 to 112 °C

CCCCn1cc(CCN(C)C)c2c(O)cc(F)cc21 [Compound O-4286, 3-(2-Dimethylaminoethyl)-6-fluoro-1-butyl-1H-indol-4-ol]
Functional Assay (EC50) 5-HT2C (human 5-HT2C-INI): inactive
Functional Assay (EC50) 5-HT2B (5-HT2B): Inactive
Functional Assay (EC50) 5-HT2A (5-HT2A): Inactive
melting point: 92 to 95 °C

CCCCn1cc(CCN(C)C)c2c(O)ccc(F)c21 [Compound O-4205, 3-(2-Dimethylaminoethyl)-7-fluoro-1-butyl-1H-indol-4-ol]
Functional Assay (EC50) 5-HT2C (human 5-HT2C-INI): inactive
Functional Assay (EC50) 5-HT2B (5-HT2B): Inactive
Functional Assay (EC50) 5-HT2A (5-HT2A): Inactive
melting point: 87 to 90 °C

CN(C)CCc1cn(S(C)(=O)=O)c2c(F)ccc(O)c12
melting point: 181 to 183 °C
